Key:
[1] = test system: Wnt signalling pathway; experiment: Wnt-sensitive reporter gene assay (6xTCF-luciferase, pTOP-FLASH) in Hek293T cells; type: cell-based; settings: for Normalized Wnt pathway inhibitory activity: 24 h; for IC50: Homo sapiens, HEK-293T, 6xTCF-luciferase, 5nM - 100 microM, 24 h incubation, read-out: IC50 of the Wnt pathway inhibitory activity
Experimental: To screen for small-molecule modulators of the Wnt signalling pathway, a reporter gene based assay describing the modulation of the TCF4 transcription factor was used. More specifically 4000 Hek293T cells were seeded into 384 high density plates. 24h after seeding a Wnt-sensitive reporter (6xTCF-luciferase (Firefly) (pTOP-FLASH; "Armadillo coactivates transcription driven by the product of the Drosophila segment polarity gene dTCF", Cell, 1997, 88(6), pages 789-99)) and constitutively expressed control reporter (Renilla luciferase pCMV-RL) were transfected into Hek293T. Wnt signaling was stimulated by cotransfecting mouse Wnt1, mouse Frizzled 8 and human LRP6 according to "Casein kinase 1 gamma couples Wnt receptor activation to cytoplasmic signal transduction", Nature, 2005, 438(7069), pages 867-872. 24 h after pathway stimulation compounds were added at a concentration of 10 microM and allowed to incubate for 24 h. For the evaluation of the IC50 the compound was applied in increasing concentrations yielding final concentrations per well of 5nM - 100 microM.

[2] = test system: HS68; experiment: Cell line specific cytotoxicity, count of Hoechst labeled nuclei, HS68 fibroblasts; type: cell-based, human; settings: for Normalized cell count (HS68): normal cells, at least 72 hr
Experimental: For examination of cell line-specific cytotoxicity, compounds were applied to human colorectal cancer cells (HCT116, denoted (1); SW480, denoted (2); Dld-1, denoted (3)) and human fibroblasts (HFF-1, denoted (4); HS-68, denoted (5)), cultured in Mc Coy's (1) and Dulbecco's Modified Eagles Medium ((2)-(5)), supplemented with 10% ((1)-(3)) and 20% ((4), (5)) fetal calf serum and 1% penicillin/streptomycin. Cells were grown in T75 flasks at 37 °C, 5% CO2 and trypsinized when 60-80% confluent by adding 2 ml of 0.25% Trypsin-EDTA solution. Cells were then re-suspended into culture medium yielding approx. 750 cells, suspended in 45 microl medium, were plated into each well of a black 384-well plate for fluorescence imaging experiments. […] Compound incubation was terminated by (a) fixation and (b) permeabilisation of cells, followed by (c) fluorescence labeling of cell nuclei for cytometric quantification or by immunocytochemistry for microscopic evaluation of cell morphology. The three steps were performed by replacing the solution of the previous step in each well of a 384-well plate by (a) 30 microl PBS (phosphate buffered saline) containing 5% PFA (paraformaldehyde), (b) 30 microl PBS containing 0.2% TritonX-100 and (c) 10 microl PBS containing Hoechst-33342 for cytometry or Hoechst-33342, FITC-(fluorescein isothiocyanate-)labeled alpha-tubulin antibodies and TRITC-(tetramethylrhodamine isothiocyanate-)labeled phalloidin for microscopy. Solutions were incubated for 15 (a,b) and 30 min (c) in the dark at room temperature. Cells were washed twice between each step with 30 microl PBS. The assay system was miniaturized and adapted to automated workflow using liquid-handling robotics.
Cell line-specific cytotoxicity was quantified by counting the number of Hoechst labeled nuclei per well of a 384-well plate using a plate cytometer. Data obtained with the cytometer was analysed using standard data analysis software.
Identified hits were further evaluated by visual inspection of fluorescence micrographs obtained from imaging using a conventional fluorescence microscope.

[3] = test system: human colon carcinoma cells HCT116; experiment: Antiproliferative activity against HCT116, count of Hoechst labeled nuclei; type: cell-based; settings: for Normalized cell count (HCT 116): HCT116 colon carcinoma cells
Experimental: For examination of cell line-specific cytotoxicity, compounds were applied to human colorectal cancer cells (HCT116, denoted (1); SW480, denoted (2); Dld-1, denoted (3)) and human fibroblasts (HFF-1, denoted (4); HS-68, denoted (5)), cultured in Mc Coy's (1) and Dulbecco's Modified Eagles Medium ((2)-(5)), supplemented with 10% ((1)-(3)) and 20% ((4), (5)) fetal calf serum and 1% penicillin/streptomycin. Cells were grown in T75 flasks at 37 °C, 5% CO2 and trypsinized when 60-80% confluent by adding 2 ml of 0.25% Trypsin-EDTA solution. Cells were then re-suspended into culture medium yielding approx. 750 cells, suspended in 45 microl medium, were plated into each well of a black 384-well plate for fluorescence imaging experiments. 24 - 36 hr later 5 microl compound solution (100 microM compound dissolved in ultra pure water containing 1% DMSO), were added to achieve a final concentration of 10 microM and were incubated for at least 72 hr. Compound incubation was terminated by (a) fixation and (b) permeabilisation of cells, followed by (c) fluorescence labeling of cell nuclei for cytometric quantification or by immunocytochemistry for microscopic evaluation of cell morphology. The three steps were performed by replacing the solution of the previous step in each well of a 384-well plate by (a) 30 microl PBS (phosphate buffered saline) containing 5% PFA (paraformaldehyde), (b) 30 microl PBS containing 0.2% TritonX-100 and (c) 10 microl PBS containing Hoechst-33342 for cytometry or Hoechst-33342, FITC-(fluorescein isothiocyanate-)labeled alpha-tubulin antibodies and TRITC-(tetramethylrhodamine isothiocyanate-)labeled phalloidin for microscopy. Solutions were incubated for 15 (a,b) and 30 min (c) in the dark at room temperature. Cells were washed twice between each step with 30 microl PBS. The assay system was miniaturized and adapted to automated workflow using liquid-handling robotics.
Cell line-specific cytotoxicity was quantified by counting the number of Hoechst labeled nuclei per well of a 384-well plate using a plate cytometer. Data obtained with the cytometer was analysed using standard data analysis software. […]
The examination of the antiproliferative activity against human colon carcinoma cells HCT116 was carried out in analogy to example 203. […] Compounds of the present invention have potent antiproliferative acivity against human colon carcinoma cells as shown for HCT116 in Table 6.

## CCOC(=O)c1c(C)nc2c(c(N3CCN(Cc4ccccc4F)CC3)nc(=O)n2-c2ccccc2)c1-c1ccccc1 [Example 150]
[1]; 0.005 microM
  Normalized Wnt pathway inhibitory activity: 0.8990
[1]; 0.015 microM
  Normalized Wnt pathway inhibitory activity: 0.8480
[1]; 0.046 microM
  Normalized Wnt pathway inhibitory activity: 0.8763
[1]; 0.137 microM
  Normalized Wnt pathway inhibitory activity: 1.0310
[1]; 0.412 microM
  Normalized Wnt pathway inhibitory activity: 0.8660
[1]; 1.235 microM
  Normalized Wnt pathway inhibitory activity: 0.6448
[1]; 3.704 microM
  Normalized Wnt pathway inhibitory activity: 0.3170
[1]; 11.111 microM
  Normalized Wnt pathway inhibitory activity: 0.2795
[1]; 33.333 microM
  Normalized Wnt pathway inhibitory activity: 0.1573
[1]; 100.000 microM
  Normalized Wnt pathway inhibitory activity: 0.1708
[1]
  IC50: 1600 ± 600 nM
[2]; 0.005 microM
  Normalized cell count (HS68): 1
[2]; 0.015 microM
  Normalized cell count (HS68): 1.018
[2]; 0.046 microM
  Normalized cell count (HS68): 1.012
[2]; 0.137 microM
  Normalized cell count (HS68): 0.9701
[2]; 0.412 microM
  Normalized cell count (HS68): 0.9865
[2]; 1.235 microM
  Normalized cell count (HS68): 0.9917
[2]; 3.704 microM
  Normalized cell count (HS68): 1.106
[2]; 11.111 microM
  Normalized cell count (HS68): 1.081
[2]; 33.333 microM
  Normalized cell count (HS68): 1.034
[2]; 100.000 microM
  Normalized cell count (HS68): 0.6334
[3]; 0.005 microM
  Normalized cell count (HCT 116): 1
[3]; 0.015 microM
  Normalized cell count (HCT 116): 1.076
[3]; 0.046 microM
  Normalized cell count (HCT 116): 1.153
[3]; 0.137 microM
  Normalized cell count (HCT 116): 1.2
[3]; 0.412 microM
  Normalized cell count (HCT 116): 1.087
[3]; 1.235 microM
  Normalized cell count (HCT 116): 1.105
[3]; 3.704 microM
  Normalized cell count (HCT 116): 0.8597
[3]; 11.111 microM
  Normalized cell count (HCT 116): 0.4595
[3]; 33.333 microM
  Normalized cell count (HCT 116): 0.1363
[3]; 100.000 microM
  Normalized cell count (HCT 116): 0.1263

## CCOC(=O)c1c(C)nc2c(c(N3CCN(C/C=C/c4ccccc4)CC3)nc(=O)n2-c2ccccc2)c1-c1ccccc1 [Example 153, 7-Methyl-2-oxo-1,5-diphenyl-4-[4-((E)-3-phenyl-allyl)-piperazin-1-yl]-1,2-dihydro-pyrido[2,3-d]pyrimidine-6-carboxylic acid ethyl ester]
[1]; 0.005 microM
  Normalized Wnt pathway inhibitory activity: 0.8000
[1]; 0.046 microM
  Normalized Wnt pathway inhibitory activity: 1.0868
[1]; 0.137 microM
  Normalized Wnt pathway inhibitory activity: 0.9813
[1]; 0.412 microM
  Normalized Wnt pathway inhibitory activity: 0.8173
[1]; 1.235 microM
  Normalized Wnt pathway inhibitory activity: 0.5333
[1]; 3.704 microM
  Normalized Wnt pathway inhibitory activity: 0.2410
[1]; 11.111 microM
  Normalized Wnt pathway inhibitory activity: 0.1023
[1]; 33.333 microM
  Normalized Wnt pathway inhibitory activity: 0.0518
[1]; 100.000 microM
  Normalized Wnt pathway inhibitory activity: 0.0132
[1]
  IC50: 1600 ± 900 nM
[2]; 0.005 microM
  Normalized cell count (HS68): 1
[2]; 0.015 microM
  Normalized cell count (HS68): 1.0005
[2]; 0.046 microM
  Normalized cell count (HS68): 0.9849
[2]; 0.137 microM
  Normalized cell count (HS68): 0.9755
[2]; 0.412 microM
  Normalized cell count (HS68): 0.9186
[2]; 1.235 microM
  Normalized cell count (HS68): 0.9639
[2]; 3.704 microM
  Normalized cell count (HS68): 0.9349
[2]; 10 microM, HS-68 cell line
  Effect on normal cells (HS-68): not affected
[2]; 11.111 microM
  Normalized cell count (HS68): 0.9432
[2]; 33.333 microM
  Normalized cell count (HS68): 0.826
[2]; 100.000 microM
  Normalized cell count (HS68): 0.2108
[3]; 0.005 microM
  Normalized cell count (HCT 116): 1
[3]; 0.015 microM
  Normalized cell count (HCT 116): 0.9124
[3]; 0.046 microM
  Normalized cell count (HCT 116): 0.9327
[3]; 0.137 microM
  Normalized cell count (HCT 116): 0.9534
[3]; 0.412 microM
  Normalized cell count (HCT 116): 0.8371
[3]; 1.235 microM
  Normalized cell count (HCT 116): 0.7255
[3]; 3.704 microM
  Normalized cell count (HCT 116): 0.538
[3]; 11.111 microM
  Normalized cell count (HCT 116): 0.1546
[3]; 33.333 microM
  Normalized cell count (HCT 116): 0.09126
[3]; 100.000 microM
  Normalized cell count (HCT 116): 0.1143
[3]; Homo sapiens, HCT-116, HCT116, read-out: IC50 of the antiproliferation activity
  IC50: 3.1 ± 0.6 µM

— EP2266984A1, “Pyrido[2,3-d]pyrimidines as Wnt antagonists for treatment of cancer and arthritis” (Deutsches Krebsforschungszentrum Stiftung des öffentlichen …, priority 2009, dated 2010)
